The text below walks through data of patent publication US10358454B2, “Marinopyrrole derivatives and methods of making and using same” (H. LEE MOFFITT CANCER CENTER AND RESEARCH INSTITUTE, INC., priority 2014, dated 2019).

For one test, the target named is Mcl-1/Bim (Homo sapiens, UniProt Q07820). The experiment in a line: Mcl-1/Bim ELISA (GST-Mcl-1 binding to biotinylated Bim BH3 peptide). Conditions: for selectivity profile Mcl-1 vs Bcl-xL in words: from Mcl-1/Bim and Bcl-xL/Bim ELISA; for fold loss of potency against Mcl-1/Bim: 1-15 and 1-13 vs 1-10, 1-14 vs 1-11, 1-16 vs 1-15, 1-12 vs 1-9, 1-22, 1-21, 1-20 vs 1-23, 1-37 and N-Me methoxy analogue vs (±)-1; for selectivity for Mcl-1 over Bcl-xL (Mcl-1/Bim over Bcl-xL/Bim): ratio of ELISA IC50 values. The method, then: (§1) ELISAs were performed using a modified version of a previously described procedure (Doi K et al. J. Biol. Chem. 2012, 287, 10224-10235). Briefly, 40 nM of biotinylated Bim BH3 peptide (Biomatik) in SuperBlock blocking buffer (Pierce) was incubated in high-binding capacity streptavidin-coated plates (Pierce) for 2 h. Compounds were diluted in 120 μl of PBS containing 10 nM of GST-Mcl-1 or GST-Bcl-xL in 1.5 mL tubes for 15 min. Wells were washed with wash buffer (PBS containing 0.05% Tween-20) and then 100 μL of the compound/GST-protein mixture was transferred to the wells. The plates were incubated for 2 h, and then the wells were washed with wash buffer. HRP-conjugated anti-GST antibody (Bethyl Laboratories) was diluted 1:2000 in SuperBlock and 100 μL was transferred to each well. The plate was incubated for 1 h, and then the wells were washed with wash buffer followed by PBS. 100 μL of SureBlue TMB Microwell Peroxidase Substrate (VWR) was added to each well and plates were developed for 5-10 min. 100 μL of 1 N HCl was added to each well to stop the reaction and absorbance was read at 450 nm using a μQuant plate reader (Bio-Tek).
Sequence of Mcl-1/Bim (Q07820 whole entry): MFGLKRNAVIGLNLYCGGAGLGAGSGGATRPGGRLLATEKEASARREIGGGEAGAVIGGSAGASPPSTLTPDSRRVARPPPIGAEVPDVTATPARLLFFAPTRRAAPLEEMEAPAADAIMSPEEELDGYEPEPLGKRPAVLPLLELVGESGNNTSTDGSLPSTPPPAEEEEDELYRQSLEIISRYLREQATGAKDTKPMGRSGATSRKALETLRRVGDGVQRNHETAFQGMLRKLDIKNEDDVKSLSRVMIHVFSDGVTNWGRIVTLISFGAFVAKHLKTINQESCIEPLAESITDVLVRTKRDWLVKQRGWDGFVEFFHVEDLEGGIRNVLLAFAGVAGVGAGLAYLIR
(§2) ELISAs were performed using a similar procedure as previously described (Doi K, et al. J. Biol. Chem. 2012, 287, 10224-10235). Briefly, 40 nM of biotinylated Bim BH3 peptide (Biomatik) in SuperBlock blocking buffer (Pierce) was incubated in high-binding capacity streptavidin-coated plates (Pierce) for 2 h. Compounds were diluted in 120 μl of PBS containing 10 nM of GST-Mcl-1 or GST-Bcl-xL in 1.5 mL tubes for 15 min. Wells were washed with wash buffer (PBS containing 0.05% Tween-20) and then 100 μL of the compound/GST-protein mixture was transferred to the wells. The plates were incubated for 2 h, and then wells were washed with wash buffer. HRP-conjugated anti-GST antibody (Bethyl Laboratories) was diluted 1:2000 in SuperBlock and 100 μL was transferred to each well. The plate was incubated for 1 h, and then wells were washed with wash buffer followed by PBS. 100 μL of SureBlue TMB Microwell Peroxidase Substrate (VWR) was added to each well and plates were developed for 5-10 min. 100 μL of 1 N HCl was added to each well to stop the reaction and absorbance was read at 450 nm using μQuant plate reader (Bio-Tek).
In general terms: ELISA stands for enzyme-linked immunosorbent assay.

The target in the next test is Bcl-xL/Bim (Homo sapiens, UniProt Q07817). The experiment in a line: Bcl-xL/Bim ELISA (GST-Bcl-xL binding to biotinylated Bim BH3 peptide). The method, then: as §1, §2
Sequence of Bcl-xL/Bim (Q07817 whole entry): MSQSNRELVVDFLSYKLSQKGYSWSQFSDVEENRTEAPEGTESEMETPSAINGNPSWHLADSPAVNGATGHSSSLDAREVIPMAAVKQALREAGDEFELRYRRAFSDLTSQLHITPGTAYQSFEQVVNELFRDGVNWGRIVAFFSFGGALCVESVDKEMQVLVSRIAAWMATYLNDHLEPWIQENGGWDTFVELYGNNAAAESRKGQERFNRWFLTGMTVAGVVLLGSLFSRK
[1] abbreviates: Table 2-B, n ≥ 3, read-out: Mcl-1/Bim IC50 (average ± SEM).
[2] abbreviates: Table 3-A structure I, Mcl-1 at 10 nM, n ≥ 3, read-out: Mcl-1-Bim IC50 (average ± SEM).
Setting [3] is: Table 2-B, n ≥ 3 unless specified, read-out: Bcl-xL/Bim IC50 (average ± SEM).
Setting [4] is: Table 3-A structure I, Bcl-xL at 10 nM, n ≥ 3, read-out: Bcl-xL-Bim IC50 (average ± SEM).

Read-outs that look alike come from different tables or passages of the source.

Consider `O=C(c1ccc(C(F)(F)F)cc1O)c1[nH]c(Cl)c(Cl)c1-n1c(C(=O)c2ccc(C(F)(F)F)cc2O)cc(Cl)c1Cl` [Compound 1-1], for which, at Mcl-1/Bim, the “selectivity profile Mcl-1 vs Bcl-xL in words” value was “dual Mcl-1 and Bcl-XL antagonists”.
In the case of `Cc1cc(O)c(C(=O)c2[nH]c(Cl)c(Cl)c2-n2c(C(=O)c3cc(Cl)c(C)cc3O)cc(Cl)c2Cl)cc1Cl` [Compound 1-2, (4,4′,5,5′-Tetrachloro-1′H-1,3′-bipyrrole-2,2′-diyl)bis((5-chloro-2-hydroxy-4-methylphenyl)methanone)], the IC50 on Mcl-1/Bim (setting [1]) was found to be 2600 ± 600 nM; on Mcl-1/Bim (setting [2]) it was 2600 ± 600 nM; on Bcl-xL/Bim (setting [3]), 2500 ± 400 nM; at Bcl-xL/Bim (setting [4]) it was 2500 ± 400 nM. The “selectivity profile Mcl-1 vs Bcl-xL in words” value on Mcl-1/Bim is “dual Mcl-1 and Bcl-XL antagonists”.
For the compound `O=C(c1ccc(OS(=O)(=O)C(F)(F)F)cc1O)c1[nH]c(Cl)c(Cl)c1-n1c(C(=O)c2ccc(OS(=O)(=O)C(F)(F)F)cc2O)cc(Cl)c1Cl` [Compound 1-6, (4,4′,5,5′-tetrachloro-1′H-1,3′-bipyrrole-2,2′-diyl)bis(((2-hydroxy-4-hydroxytrifluoromethanesulfonate)-phenyl)methanone)], the IC50 was 1000 ± 300 nM at Mcl-1/Bim (setting [1]); 1000 ± 300 nM on Mcl-1/Bim (setting [2]); 1000 nM at Mcl-1/Bim (read-out: IC50 to inhibit the binding of Mcl-1 to Bim); 2500 ± 700 nM at Bcl-xL/Bim (setting [3]); 2100 ± 700 nM on Bcl-xL/Bim (setting [4]).
Take `O=C(c1ccc(O)cc1O)c1[nH]c(Cl)c(Cl)c1-n1c(C(=O)c2ccc(O)cc2O)cc(Cl)c1Cl` [Compound 1-7]: at Mcl-1/Bim, the “activity against Mcl-1/Bim in words” value was “lost potency”. Moreover, the IC50 on Bcl-xL/Bim (setting [3]) and on Bcl-xL/Bim (setting [4]) was over 50000 nM throughout.
In the case of `O=C(c1cc(Cl)c(O)cc1O)c1[nH]c(Cl)c(Cl)c1-n1c(C(=O)c2cc(Cl)c(O)cc2O)cc(Cl)c1Cl` [Compound 1-8], the IC50 on Bcl-xL/Bim (setting [3]) and at Bcl-xL/Bim (setting [4]) was over 50000 nM each time.
For `CCOC(=O)CSc1ccc(C(=O)c2[nH]c(Cl)c(Cl)c2-n2c(C(=O)c3ccc(SCC(=O)OCC)cc3O)cc(Cl)c2Cl)c(O)c1` [Compound 1-9], on Mcl-1/Bim (1-9 vs 1-15), the “fold improvement of potency against Mcl-1/Bim” value worked out at 3.4 fold. Besides, the values for the IC50 at Mcl-1/Bim (setting [2]) and at Bcl-xL/Bim (setting [4]) were 1800 ± 300 nM and 1200 ± 200 nM, respectively. For the same compound, the “fold enhancement of potency against Bcl-xL/Bim” value at Bcl-xL/Bim (1-9 vs 1-15) is given as “over 83 fold”.
Regarding `COc1ccc(CS(=O)(=O)c2ccc(C(=O)c3[nH]c(Cl)c(Cl)c3-n3c(C(=O)c4ccc(S(=O)(=O)Cc5ccc(OC)cc5)cc4O)cc(Cl)c3Cl)c(O)c2)cc1` [Compound 1-14], on Mcl-1/Bim, the “fold loss of potency against Mcl-1/Bim” value is 25 fold. For the same compound, on Mcl-1/Bim (setting [1]), the IC50 was found to be 17400 ± 3100 nM.
`O=C(O)CS(=O)(=O)c1ccc(C(=O)c2[nH]c(Cl)c(Cl)c2-n2c(C(=O)c3ccc(S(=O)(=O)CC(=O)O)cc3O)cc(Cl)c2Cl)c(O)c1` [Compound 1-16]: at Mcl-1/Bim, the “activity against Mcl-1/Bim in words” value was “lost potency” and the “fold loss of potency against Mcl-1/Bim” value was 10 fold. Also, the IC50 on Mcl-1/Bim (setting [2]) came out at 63000 ± 5400 nM.
On to `CC(C)(C)OC(=O)Cn1cc(-c2cc(O)c(C(=O)c3[nH]c(Cl)c(Cl)c3-n3c(C(=O)c4cc(Cl)c(-c5cn(CC(=O)OC(C)(C)C)nn5)cc4O)cc(Cl)c3Cl)cc2Cl)nn1` [Compound 1-18, Di-tert-butyl 2,2′-(4,4′-((4,4′,5,5′-tetrachloro-1′H-1,3′-bipyrrole-2,2′-dicarbonyl)bis(2-chloro-5-hydroxy-4,1-phenylene))bis(1H-1,2,3-triazole-4,1-diyl))diacetate], for which, on Mcl-1/Bim, the “selectivity for Mcl-1 over Bcl-xL (Mcl-1/Bim over Bcl-xL/Bim)” value is recorded as 8.3 fold.
Same read-out and setting: as for `CC(C)(C)OC(=O)Cn1cc(-c2ccc(C(=O)c3[nH]c(Cl)c(Cl)c3-n3c(C(=O)c4ccc(-c5cn(CC(=O)OC(C)(C)C)nn5)cc4O)cc(Cl)c3Cl)c(O)c2)nn1` [Compound 1-25, Di-tert-butyl 2,2′-(4,4′-((4,4′,5,5′-tetrachloro-1′H-1,3′-bipyrrole-2,2′-dicarbonyl)bis(3-hydroxy-4,1-phenylene))bis(1H-1,2,3-triazole-4,1-diyl))diacetate], the figure is 1.6 fold.
